Molecular target: human NaV subtype, like NaV 1.7 (Homo sapiens, UniProt Q15858)
Test: E-VIPR optical membrane potential assay with electrical stimulation
Type: cell-based
Conditions: active against one or more sodium channels; Table 3 does not name the assay or NaV subtype; read-out: Binned Activity Data (IC50)
Text: Assays for Detecting and Measuring NaV Inhibition Properties of Compound E-VIPR Optical Membrane Potential Assay Method with Electrical Stimulation
Sodium channels are voltage-dependent proteins that can be activated by inducing membrane voltage changes by applying electric fields. The electrical stimulation instrument and methods of use are described in Ion Channel Assay Methods PCT/US01/21652, herein incorporated by reference and are referred to as E-VIPR. The instrument comprises a microtiter plate handler, an optical system for exciting the coumarin dye while simultaneously recording the coumarin and oxonol emissions, a waveform generator, a current- or voltage-controlled amplifier, and a device for inserting electrodes in well. Under integrated computer control, this instrument passes user-programmed electrical stimulus protocols to cells within the wells of the microtiter plate.
24 hours before the assay on E-VIPR, HEK cells expressing human NaV subtype, like NaV 1.7, are seeded in 384-well poly-lysine coated plates at 15,000-20,000 cells per well. Other subtypes are performed in an analogous mode in a cell line expressing the NaV of interest. HEK cells are grown in media (exact composition is specific to each cell type and NaV subtype) supplemented with 10% FBS (Fetal Bovine Serum, qualified; GibcoBRL #16140-071) and 1% Pen-Strep (Penicillin-Streptomycin; GibcoBRL #15140-122). Cells are grown in vented cap flasks, in 90% humidity and 10% CO2, to 100% confluence. They are usually split by trypsinization 1:10 or 1:20, depending on scheduling needs, and grown for 2-3 days before the next split.
Bath 1 buffer. Glucose 10 mM (1.8 g/L), Magnesium Chloride (Anhydrous), 1 mM (0.095 g/L), Calcium Chloride, 2 mM (0.222 g/L), HEPES 10 mM (2.38 g/L), Potassium Chloride, 4.5 mM (0.335 g/L), Sodium Chloride 160 mM (9.35 g/L).
Hexyl Dye Solution: Bath 1 Buffer+0.5% β-cyclodextrin (make this prior to use, Sigma #C4767), 8 μM CC2-DMPE+2.5 μM DiSBAC6(3). To make the solution Add volume of 10% Pluronic F127 stock equal to volumes of CC2-DMPE+DiSBAC6(3). The order of preparation is first mix Pluronic and CC2-DMPE, then add DiSBAC6(3) while vortexing, then add Bath 1+β-Cyclodextrin.
1) Pre-spot compounds (in neat DMSO) into compound plates. Vehicle control (neat DMSO), the positive control (20 mM DMSO stock tetracaine, 125 μM final in assay) and test compounds are added to each well at 160× desired final concentration in neat DMSO. Final compound plate volume will be 80 μL (80-fold intermediate dilution from 1 μL DMSO spot; 160-fold final dilution after transfer to cell plate). Final DMSO concentration for all wells in assay is 0.625%.
2) Prepare Hexyl Dye Solution.
3) Prepare cell plates. On the day of the assay, medium is aspirated and cells are washed three times with 100 μL of Bath 1 Solution, maintaining 25 μL residual volume in each well.
4) Dispense 25 μL per well of Hexyl Dye Solution into cell plates. Incubate for 20-35 minutes at room temp or ambient conditions.
5) Dispense 80 μL per well of Bath 1 into compound plates. Acid Yellow-17 (1 mM) is added and Potassium Chloride can be altered from 4.5 to 20 mM depending on the NaV subtype and assay sensitivity.
6) Wash cell plates three times with 100 μL per well of Bath1, leaving 25 μL of residual volume. Then transfer 25 uL per well from Compound Plates to Cell Plates. Incubate for 20-35 minutes at room temp/ambient condition
7) Read Plate on E-VIPR. Use the current-controlled amplifier to deliver stimulation wave pulses for typically 9 seconds and a scan rate of 400 Hz. A pre-stimulus recording is performed for 0.5 seconds to obtain the un-stimulated intensities baseline. The stimulatory waveform is applied for 9 seconds followed by 0.5 seconds of post-stimulation recording to examine the relaxation to the resting state.

Chain of human NaV subtype, like NaV 1.7 (Q15858 whole entry): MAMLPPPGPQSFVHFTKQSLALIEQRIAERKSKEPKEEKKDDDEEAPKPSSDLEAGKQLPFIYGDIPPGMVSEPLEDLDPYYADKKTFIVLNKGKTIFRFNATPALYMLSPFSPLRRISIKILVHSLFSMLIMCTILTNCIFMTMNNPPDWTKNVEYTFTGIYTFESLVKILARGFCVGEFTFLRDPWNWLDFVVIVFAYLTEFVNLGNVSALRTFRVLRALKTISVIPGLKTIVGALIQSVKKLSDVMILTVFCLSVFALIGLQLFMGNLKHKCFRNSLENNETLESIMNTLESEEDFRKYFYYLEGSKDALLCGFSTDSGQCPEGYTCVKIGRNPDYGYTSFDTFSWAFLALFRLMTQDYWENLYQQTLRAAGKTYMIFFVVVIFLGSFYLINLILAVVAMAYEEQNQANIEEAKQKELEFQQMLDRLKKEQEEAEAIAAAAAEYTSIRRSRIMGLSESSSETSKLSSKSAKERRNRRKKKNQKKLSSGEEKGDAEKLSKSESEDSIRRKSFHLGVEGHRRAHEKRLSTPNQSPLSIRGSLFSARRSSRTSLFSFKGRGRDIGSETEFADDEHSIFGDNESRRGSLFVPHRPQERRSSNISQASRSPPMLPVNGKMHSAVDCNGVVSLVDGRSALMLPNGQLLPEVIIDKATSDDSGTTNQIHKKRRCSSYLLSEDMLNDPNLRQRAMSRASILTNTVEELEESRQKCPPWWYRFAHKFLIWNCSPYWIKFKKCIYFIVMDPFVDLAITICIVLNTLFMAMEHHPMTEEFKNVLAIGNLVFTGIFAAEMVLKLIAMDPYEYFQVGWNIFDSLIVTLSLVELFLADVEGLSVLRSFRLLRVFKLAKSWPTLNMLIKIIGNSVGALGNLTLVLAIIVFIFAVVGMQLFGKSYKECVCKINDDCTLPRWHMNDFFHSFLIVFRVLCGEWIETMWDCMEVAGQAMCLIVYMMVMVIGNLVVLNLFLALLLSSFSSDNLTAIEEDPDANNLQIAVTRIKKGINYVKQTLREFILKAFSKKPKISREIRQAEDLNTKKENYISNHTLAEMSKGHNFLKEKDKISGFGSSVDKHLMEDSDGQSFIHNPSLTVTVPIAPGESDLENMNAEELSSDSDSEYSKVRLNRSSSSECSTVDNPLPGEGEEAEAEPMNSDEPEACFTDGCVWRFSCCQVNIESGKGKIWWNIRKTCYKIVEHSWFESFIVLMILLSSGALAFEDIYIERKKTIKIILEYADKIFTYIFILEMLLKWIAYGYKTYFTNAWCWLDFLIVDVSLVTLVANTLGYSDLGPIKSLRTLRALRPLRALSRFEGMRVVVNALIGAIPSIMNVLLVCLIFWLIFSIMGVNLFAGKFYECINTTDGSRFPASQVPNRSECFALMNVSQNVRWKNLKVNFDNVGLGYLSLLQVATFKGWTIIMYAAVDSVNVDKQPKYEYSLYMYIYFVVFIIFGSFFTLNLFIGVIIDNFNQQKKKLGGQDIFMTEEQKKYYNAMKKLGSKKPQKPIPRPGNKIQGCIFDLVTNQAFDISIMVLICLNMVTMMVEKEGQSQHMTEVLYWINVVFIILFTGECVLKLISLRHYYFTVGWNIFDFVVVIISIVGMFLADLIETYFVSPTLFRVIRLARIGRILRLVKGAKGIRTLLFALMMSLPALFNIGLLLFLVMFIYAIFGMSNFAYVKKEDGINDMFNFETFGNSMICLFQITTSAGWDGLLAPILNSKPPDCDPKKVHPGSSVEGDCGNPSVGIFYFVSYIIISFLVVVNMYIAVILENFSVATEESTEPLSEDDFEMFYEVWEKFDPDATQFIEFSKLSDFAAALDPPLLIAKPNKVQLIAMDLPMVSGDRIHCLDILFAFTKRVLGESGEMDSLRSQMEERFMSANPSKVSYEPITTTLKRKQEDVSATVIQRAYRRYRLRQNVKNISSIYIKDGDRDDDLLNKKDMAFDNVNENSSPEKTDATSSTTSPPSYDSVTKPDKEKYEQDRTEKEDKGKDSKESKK

| IC50 [µM] | SMILES |
| --- | --- |
| > 5 | CC(C)CCOc1ccc(C(=O)N2CCC3(CC2)NC(C)(C)Cn2cc(F)c(F)c23)cc1 [Compound 79] |
| ≤ 2 | COc1ccc(C(=O)N2CCC3(CC2)c2ccc(C(=O)C(F)(F)F)n2CCN3C)cc1Cl [Compound 697] |
| ≤ 2 | CCCCc1ccc(C(=O)N2CCC3(CC2)c2ccc(C(C)=O)n2CCN3C)cc1 [Compound 189] |
| ≤ 2 | COCCN1CCn2cccc2C12CCN(C(=O)c1ccc(OC(C)C)c(C)c1)CC2 [Compound 269] |
| ≤ 2 | COc1ccc(C(=O)N2CCC3(CC2)c2c(F)cc(C(F)(F)F)n2CCN3C)cc1C(F)(F)F [Compound 255] |
| ≤ 2 | CCCN(CCC)S(=O)(=O)c1ccc(C(=O)N2CCC3(CC2)c2ccc(C(=O)C(F)(F)F)n2CCN3C)cc1 [Compound 671] |
| ≤ 2 | CCCCOc1ccc(C(=O)N2CCC3(CC2)c2ccc(C(=O)C(F)(F)F)n2CCN3C)cc1 [Compound 592] |
| ≤ 2 | Cc1cc(C(=O)N2CCC3(CC2)c2ccc(C(F)(F)F)n2CCN3CC#N)ccc1OC(C)C [Compound 165] |
| 2 to 5 | CN1CCn2c(C(=O)C(F)(F)F)ccc2C12CCN(C(=O)c1ccc(S(=O)(=O)C3CC3)cc1)CC2 [Compound 496] |
| ≤ 2 | COc1cc(C(=O)N2CCC3(CC2)c2c(Br)cc(C(F)(F)F)n2CCN3C)ccc1OC(C)C [Compound 348] |
| 2 to 5 | CC(C)Cc1ccc(C(=O)N2CCC3(CC2)c2ccc(Cl)n2CCN3C)cc1 [Compound 73] |
| > 5 | COc1ccc(C(=O)N2CCC3(CC2)NC(C)(C)Cn2c(C(C)=O)ccc23)cc1C(F)(F)F [Compound 633] |
| ≤ 2 | CC(C)Oc1ccc(C(=O)N2CCC3(CC2)c2ccc(C(F)(F)F)n2CCN3C)cc1CO [Compound 709] |
| ≤ 2 | CC(C)Oc1ccc(C(=O)N2CCC3(CC2)c2c(F)cc(C(F)(F)F)n2CCN3C)cc1CO [Compound 390] |
| ≤ 2 | COc1cc(C(=O)N2CCC3(CC2)c2ccc(C(=O)C(F)(F)F)n2CCN3C)ccc1-c1ccccc1 [Compound 555] |
| > 5 | COc1ccc(C(=O)N2CCC3(CC2)c2cc(C(=O)C(F)(F)F)cn2C(C)(C)CN3C)cc1C [Compound 239] |
| 2 to 5 | Cc1ccnc2c(C(=O)N3CCC4(CC3)c3ccc(C(F)(F)F)n3CCN4C)cnn12 [Compound 731] |
| ≤ 2 | CN1CCn2c(C(=O)C(F)(F)F)ccc2C12CCN(C(=O)c1ccc(COCCC(F)(F)F)cc1)CC2 [Compound 237] |
| ≤ 2 | Cc1cc(C(=O)N2CCC3(CC2)c2c(Cl)cc(C(F)(F)F)n2CCN3C)ccc1C(C)(C)O [Compound 466] |
| ≤ 2 | Cc1cc(C(=O)N2CCC3(CC2)c2c(Cl)cc(C(F)(F)F)n2CCN3C)ccc1OC(C)C [Compound 560] |
| ≤ 2 | CN1CCn2c(C(F)(F)F)cc(Cl)c2C12CCN(C(=O)c1ccc(C(C)(C)O)c(F)c1)CC2 [Compound 95] |
| 2 to 5 | CCS(=O)(=O)c1ccc(C(=O)N2CCC3(CC2)c2ccc(C(=O)C(C)(C)C)n2CCN3C)cc1C [Compound 482] |
| > 5 | Cc1cc(C(=O)N2CCC3(CC2)c2ccc(C(F)(F)F)n2CCN3C)ccc1S(C)(=O)=O [Compound 515] |
| ≤ 2 | CNS(=O)(=O)c1ccc(C(=O)N2CCC3(CC2)c2ccc(C(F)(F)C(F)(F)F)n2CCN3C)cc1C [Compound 13] |
| ≤ 2 | CCc1ccc(C(=O)N2CCC3(CC2)c2ccc(C(F)(F)F)n2CCN3CCOC)cc1OC [Compound 80] |
| ≤ 2 | CNS(=O)(=O)c1ccc(C(=O)N2CCC3(CC2)c2c(F)cc(C(F)(F)F)n2CCN3C)cc1 [Compound 415] |
| 2 to 5 | COc1cc(C(=O)N2CCC3(CC2)c2ccc(C(=O)C(F)(F)F)n2C(C)(C)CN3C)ccc1OC(C)C [Compound 126] |

| IC50 [µM] | SMILES |
| --- | --- |
| ≤ 2 | CC(=O)c1ccc2n1CCN(C)C21CCN(C(=O)c2ccc(C3CCCCC3)cc2)CC1 [Compound 559] |
| ≤ 2 | Cc1cc(C(=O)N2CCC3(CC2)c2ccc(C(F)(F)F)n2CCN3C2CCC2)ccc1OC(C)C [Compound 106] |
| ≤ 2 | Cc1cc(C(=O)N2CCC3(CC2)c2ccc(C(=O)C(F)(F)F)n2CCN3C)ccc1-c1cccc(Cl)c1 [Compound 236] |
| > 5 | COc1ccc(C(=O)N2CCC3(CC2)c2ccc(C(=O)C(F)(F)F)n2CCN3C)cc1F [Compound 121] |
| ≤ 2 | CC1(C)Cn2c(C(=O)C(F)(F)F)ccc2C2(CCN(C(=O)c3ccc(COCC(F)(F)F)cc3)CC2)N1 [Compound 41] |
| > 5 | CC(=O)c1ccc2n1CCN(C)C21CCN(C(=O)c2ccc(N3CCCCC3)cc2)CC1 [Compound 504] |
| ≤ 2 | Cc1cc(C(=O)N2CCC3(CC2)c2ccc(C(=O)C(F)(F)F)n2CCN3C)ccc1-c1cncnc1 [Compound 191] |
| ≤ 2 | COc1cc(C(=O)N2CCC3(CC2)NC(C)(C)Cn2c(C(=O)C(F)(F)F)ccc23)ccc1-c1ccccc1 [Compound 589] |
| ≤ 2 | CN1CCn2c(C(=O)C(F)(F)F)ccc2C12CCN(C(=O)c1ccc(C(O)COCC(F)(F)F)cc1)CC2 (stereo not drawn) [Compound 72] |
| ≤ 2 | COc1cc(C(=O)N2CCC3(CC2)c2c(F)cc(C(F)(F)F)n2CCN3C)ccc1OC(F)F [Compound 113] |
| > 5 | COc1ccc(C(=O)N2CCC3(CC2)c2ccc(C(=O)C(F)(F)F)n2C[C@@H](C)N3C)cc1Cl [Compound 252] |
| ≤ 2 | CCOC(=O)CN1CCn2c(C(F)(F)F)ccc2C12CCN(C(=O)c1ccc(OC(C)C)c(C)c1)CC2 [Compound 426] |
| > 5 | CC1(C)Cn2c(C(=O)C(F)(F)F)ccc2C2(CCN(C(=O)c3ccc(-c4ccccc4)c(O)c3)CC2)N1 [Compound 218] |
| > 5 | CC(=O)c1ccc2n1C(C)(C)CN(C)C21CCN(C(=O)c2ccc(C(C)(C)O)c(F)c2)CC1 [Compound 225] |
| > 5 | O=C(c1ccc(S(=O)(=O)NC2CC2)cc1)N1CCC2(CC1)c1ccc(C(F)(F)F)n1CCN2C1CCC1 [Compound 145] |
| ≤ 2 | COc1ccc(C(=O)N2CCC3(CC2)c2ccc(C(=O)C(F)(F)F)n2CCN3C)cc1OC(C)C [Compound 455] |
| 2 to 5 | CCCOc1cc(C(=O)N2CCC3(CC2)c2ccc(Cl)n2CCN3C)ccc1OC [Compound 229] |
| > 5 | Cc1cc(C(=O)N2CCC3(CC2)c2ccc(CC(F)(F)F)n2CCN3C)ccc1S(=O)(=O)C(C)C [Compound 534] |
| ≤ 2 | CC(C)S(=O)(=O)c1ccc(C(=O)N2CCC3(CC2)c2c(F)cc(C(F)(F)F)n2CCN3C)cc1 [Compound 363] |
| > 5 | CCNS(=O)(=O)c1ccc(C(=O)N2CCC3(CC2)c2ccc(C(C)=O)n2CCN3C)cc1 [Compound 192] |
| 2 to 5 | CN1CCn2c(C(=O)C(F)(F)F)ccc2C12CCN(C(=O)c1ccc(-c3ccccc3)c(O)c1)CC2 [Compound 287] |
| ≤ 2 | C=C(C)c1ccc(C(=O)N2CCC3(CC2)c2ccc(C(F)(F)F)n2CCN3C)cc1C [Compound 316] |
| ≤ 2 | COc1cc(C(=O)N2CCC3(CC2)c2c(F)cc(C(F)(F)F)n2CCN3C)ccc1OC(C)(C)C [Compound 483] |
| > 5 | Cc1cc(S(=O)(=O)C(C)C)ccc1C(=O)N1CCC2(CC1)c1ccc(C(=O)C(F)(F)F)n1CCN2C [Compound 153] |
| 2 to 5 | COc1ccc(C(=O)N2CCC3(CC2)c2ccc(C(=O)c4ccccc4)n2CCN3C)cc1Cl [Compound 74] |
| > 5 | CC(=O)c1cc2n(c1)CC(C)(C)NC21CCN(C(=O)c2ccc(OC(C)C)c(C(F)(F)F)c2)CC1 [Compound 139] |
| ≤ 2 | CC1CNC2(CCN(C(=O)c3ccc(COCCC(F)(F)F)cc3)CC2)c2ccc(C(=O)C(F)(F)F)n21 (stereo not drawn) [Compound 505] |
